Results on 3 molecules are retold here after US20240000741A1, “ALL-TRANS RETINOIC ACID ENHANCES RADIOTHERAPY AND OVERCOMES IMMUNE SUPPRESSION FOR CANCER THERAPY” (The University of Chicago, priority 2022, published 2024).

The test system of assay [1] is MC38 colon carcinoma tumors. The experiment in a line: MC38 tumor growth after local ablative IR and/or RA. In kind it is in vivo, mouse.
Another assay deals with immune cells in tumors. The assay is described as follows: Flow cytometric analysis of immune cells in treated MC38 tumors and draining lymph nodes. In kind it is in vivo, mouse. Particulars: FTY720 administration, after IR+RA treatment. From the text:
Single cell suspensions were obtained as previously described (40). Cells were blocked with anti-Fc receptor (2.4 G2, BioXCell, Lebanon, New Hampshire, United States of America) and stained for live/dead with Zombie UV, followed staining using antibodies against CD45, CD4, CD8, NK1.1, CD11b, CD11c, Ly6C, Ly6G, F4/80, CD44, CD62L.
The following antibodies were used for high-dimensional flow analysis: BV605-CX3CR, BV650-XCR1, PB-CD11 b, BV510-CD24, BV711-CD64, BV785-F4/80, AF532-CD45, PerCP-Cy5.5-1-A/I-E, PerCP-eFluor710-Flt3, PE-Cy7-CD11c, FITC-Ly6C, PE-iNOS, PE-Dazzle 594-CD103, APC-TNF, Alexa Fluor 700-CD206, and APC-Cy7-SIRPα. For IFN-γ and GrzB (515407) staining, cells were cultured with PMA/ionomycin and brefeldin A (423303, BioLegend, San Diego, California, United States of America) for 6 hours followed by intracellular staining using BD fix/perm intracellular staining kit (554714, BD Biosciences, Franklin Lakes, New Jersey, United States of America). For TNF-α staining, cells were stimulated by PMA/ionomycin and brefeldin A for 4 hours followed by intracellular staining. Foxp3 (17-5773-82, Thermo Fisher Scientific, Waltham, Massachusetts, United States of America) Ki67 (Clone 16-A8, BioLegend, San Diego, California, United States of America) and iNOS staining were performed following Foxp3 staining protocol (00-5523-00, Thermo Fisher Scientific, Waltham, Massachusetts, United States of America). Cells were analyzed on Fortessa flow cytometer (BD Biosciences, Franklin Lakes, New Jersey, United States of America) or on Aurora spectral cytometer (Cytek Biosciences, Fremont, California, United States of America. Data was analyzed with software sold under the tradename FLOWJO software (FlowJo LLC, Ashland, Oregon, United States of America).
Immune cells in tumors 4 days after the start of the treatment were examined. […] In CD11b+ subsets, Ly6C^+ cells, including CD11c^+Ly6C^+ cells, increased by 4-fold in tumors receiving the combination treatment. […] Next, the DC population was examined by analyzing high-dimensional flow cytometry data using traditional dendritic cell (DC) markers. Monocyte-derived dendritic cells (MoDCs) (Ly6C^+CD11 b^+CD11c^+ MHC-II^+CXCR3^+CD64^+SIRPα^+CD206^− cells), a low level of type two dendritic cells (DC2s) (Ly6C^−CD11b^+CD11c^+MHC-11^+CXCR3^+CD64^−SIRPα+CD206^−) and a very low level of type one dendritic cells (DC1s) (Ly6C^−CD11b^−CD11c^+MHC-11^+ CXCR1^+CD103^+CD64^−) were detected in IR and RA treated tumors.
(In general: Flow cytometry measures light scatter and fluorescence of single cells or particles in a stream.)

Assay [2] concerns bone marrow-derived DCs (BMDCs). The experiment in a line: iNOS induction in bone marrow-derived dendritic cells in vitro. The assay is classed as cell-based, mouse. Conditions: addition of IFN-γ to BMDCs cultured with RA. As for the experimental part:
Femurs and tibias from 8- to 10-week-old mice were harvested. BMDCs were derived as described (40). The cultured BMDC were collected on day 6 for further experiments. For Inf-MAC induction in vitro, bone marrow cells were cocultured with the presence of 200 μM RA. On day 6, indicated amount of IFN-γ was added directly to the culture. Cells were stained for iNOS and TNF-α after 24-36 hours and analyzed using flow cytometry.

Counter-ions that a name gives are not always drawn.

For the molecule `CC(=N)NCc1cccc(CN)c1.Cl.Cl` [1400 W, N-[[-(aminomethyl)phenyl]methyl]-ethanimidamide dihydrochloride], in assay [1] (iNOS inhibitor 1400 W administered in vivo), the “antitumor efficacy of combined IR and RA treatment” value is “significantly diminished”.
With `CCCCCCCCc1ccc(CCC(N)(CO)CO)cc1` [FTY720, fingolimod hydrochloride], in assay [1] (FTY720 20 μg per dose by gavage every day for 7 days), the “efficacy of IR+RA treatment” value is listed as “diminished to the level of IR alone”. Moreover, the “response to IR” value in assay [1] (FTY720 20 μg per dose by gavage every day for 7 days, IR alone) is reported as “not affected”. Further, the “iNOS production in Inf-MACs in tumors and in circulating blood” value in the assay on immune cells in tumors is listed as “abolishes increased iNOS production”.

B1: IFN-γ: interferon-gamma added to BMDC culture (protein, UniProt P01580 23-155, looked up)
Interferon gamma: HGTVIESLESLNNYFNSSGIDVEEKSLFLDIWRNWQKDGDMKILQSQIISFYLRLFEVLKDNQAISNNISVIESHLITTFFSNSKAKKDAFMSIAKFEVNNPQVQRQAFNELIRVVHQLLPESSLRKRKRSRC
Take B1: the “iNOS production in BMDCs” value in assay [2] is listed as “synergistically increased iNOS production in a dose dependent manner”.
